In the supplement of paper PMC8149375:
Several values for one entry are separate records, joined by “and”; a condition that tells them apart may be missing. Equal entries are not always repeated.

Tests used:
Details in all cases: treatment: drug + dasatinib (fixed dose, not stated); 5 days
SN12C [1] = assay: AUC of dose-response viability curve, drug + dasatinib, normalised to DMSO (arbitrary (AUC of normalised viability)); higher = less growth inhibition
Protocol: (§1)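 Primary HTS combination arm: 8 RCC cell lines treated with 8 doses (up to 10 uM) of each library drug plus a fixed dose of dasatinib (dose not stated) for 5 days; viability read by CellTiter-Glo and normalised to DMSO. GI50 was fitted with XLfit, AUC is the area under the dose-response curve, and minimum viability is the lowest fraction of DMSO viability across doses.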

A498 [2] = assay: as above
Protocol: as §1

TK-10 [3] = assay: as above
Protocol: as §1

UO-31 [4] = assay: as above
Protocol: as §1

ACHN [5] = assay: as above
Protocol: as §1

769-P [6] = assay: as above
Protocol: as §1

786-O [7] = assay: as above
Protocol: as §1

CAKI-1 [8] = assay: as above
Protocol: as §1

SN12C [9] = assay: minimum viability across doses, drug + dasatinib, relative to DMSO (fraction); higher = less growth inhibition
Protocol: as §1

A498 [10] = assay: as above
Protocol: as §1

TK-10 [11] = assay: as above
Protocol: as §1

UO-31 [12] = assay: as above
Protocol: as §1

ACHN [13] = assay: as above
Protocol: as §1

769-P [14] = assay: as above
Protocol: as §1

786-O [15] = assay: as above
Protocol: as §1

CAKI-1 [16] = assay: as above
Protocol: as §1

SN12C [17] = assay: GI50 of drug in presence of dasatinib; higher = less potent
Protocol: as §1

A498 [18] = assay: as above
Protocol: as §1

TK-10 [19] = assay: as above
Protocol: as §1

UO-31 [20] = assay: as above
Protocol: as §1

ACHN [21] = assay: as above
Protocol: as §1

769-P [22] = assay: as above
Protocol: as §1

786-O [23] = assay: as above
Protocol: as §1

CAKI-1 [24] = assay: as above
Protocol: as §1

SMILES	AUC of dose-response viability curve (SN12C [1])	AUC of dose-response viability curve (A498 [2])	AUC of dose-response viability curve (TK-10 [3])	AUC of dose-response viability curve (UO-31 [4])	AUC of dose-response viability curve (ACHN [5])	AUC of dose-response viability curve (769-P [6])	AUC of dose-response viability curve (786-O [7])	AUC of dose-response viability curve (CAKI-1 [8])	minimum viability across doses (SN12C [9])	minimum viability across doses (A498 [10])	minimum viability across doses (TK-10 [11])	minimum viability across doses (UO-31 [12])	minimum viability across doses (ACHN [13])	minimum viability across doses (769-P [14])	minimum viability across doses (786-O [15])	minimum viability across doses (CAKI-1 [16])	GI50 of drug (SN12C [17])	GI50 of drug (A498 [18])	GI50 of drug (TK-10 [19])	GI50 of drug (UO-31 [20])	GI50 of drug (ACHN [21])	GI50 of drug (769-P [22])	GI50 of drug (786-O [23])	GI50 of drug (CAKI-1 [24])
O=C1NC(=O)C(=Cc2ccc(-c3ccc(F)cc3)o2)S1 (stereo in doubt) + Cc1nc(Nc2ncc(C(=O)Nc3c(C)cccc3Cl)s2)cc(N2CCN(CCO)CC2)n1 [dasatinib]	2.4	3.83	2.37	3.43	2.28	2.42	2.24	2.46	0.655	0.903	0.633	0.657	0.607	0.594	0.519	0.638	> 10000 nM	> 10000 nM	> 10000 nM	> 10000 nM	> 10000 nM	> 10000 nM	> 10000 nM	> 10000 nM
CCCCOc1c(C(=O)c2c(F)cc(C)cc2F)cnc2[nH]ncc12 + Cc1nc(Nc2ncc(C(=O)Nc3c(C)cccc3Cl)s2)cc(N2CCN(CCO)CC2)n1 [dasatinib]	2.47	3.45	1.89	3.38	1.18	2.26	1.09	1.94	0.565	0.795	0.377	0.182	0.135	0.52	0.0144	0.378	> 10000 nM	> 10000 nM	322 nM	2650 nM	15 nM	> 10000 nM	25.2 nM	2580 nM
N#Cc1c(O)c2c(-c3ccc(-c4ccccc4O)cc3)csc2[nH]c1=O + Cc1nc(Nc2ncc(C(=O)Nc3c(C)cccc3Cl)s2)cc(N2CCN(CCO)CC2)n1 [dasatinib]	2.35	3.43	2.78	4.43	2.25	2.56	2.63	2.38	0.634	0.86	0.705	1.02	0.595	0.683	0.6	0.655	> 10000 nM	> 10000 nM	> 10000 nM	> 10000 nM	> 10000 nM	> 10000 nM	> 10000 nM	> 10000 nM
CO[C@@H](C(=O)N1Cc2[nH]nc(NC(=O)c3ccc(N4CCN(C)CC4)cc3)c2C1)c1ccccc1 + Cc1nc(Nc2ncc(C(=O)Nc3c(C)cccc3Cl)s2)cc(N2CCN(CCO)CC2)n1 [dasatinib]	1.95 and 1.86	2.44 and 2.82	2.19 and 2.06	2.67 and 3.57	1.37 and 1.42	2.12 and 2.33	1.57 and 1.49	1.46	0.159 and 0.145	0.36 and 0.384	0.146 and 0.131	0.0249 and 0.0141	0.0933 and 0.0842	0.346 and 0.337	–	0.0301 and 0.0221	491 nM and 366 nM	1310 nM and 2720 nM	1560 nM and 1030 nM	3120 nM and 3920 nM	18.2 nM and 153 nM	2950 nM and 3100 nM	184 nM and 231 nM	170 nM and 198 nM
CN(C)c1ccc(-c2nc3c(N4CCN(CC(=O)Nc5nccs5)CC4)c(Cl)cnc3[nH]2)cc1 + Cc1nc(Nc2ncc(C(=O)Nc3c(C)cccc3Cl)s2)cc(N2CCN(CCO)CC2)n1 [dasatinib]	2.03	2.88	2.34	3.26	1.53	2.19	1.91	1.69	0.2	0.281	0.487	0.107	0.145	0.307	0.26	0.0775	976 nM	3350 nM	4030 nM	2840 nM	162 nM	1950 nM	953 nM	334 nM
Cc1cc(CN2CCN(c3c(Br)cnc4[nH]c(-c5ccc(N6CCN(C)CC6)cc5)nc34)CC2)no1 + Cc1nc(Nc2ncc(C(=O)Nc3c(C)cccc3Cl)s2)cc(N2CCN(CCO)CC2)n1 [dasatinib]	1.78	3.1	2.24	3.64	1.5	1.76	1.52	1.57	0.00484	0.0164	0.198	0.0168	0.0106	0.019	0.00361	0.00433	626 nM	2010 nM	1820 nM	2450 nM	141 nM	504 nM	232 nM	231 nM
Cc1c(NC(=O)OC[C@@H]2COCCN2)cn2ncnc(Nc3ccc4c(cnn4Cc4cccc(F)c4)c3)c12.Cl + Cc1nc(Nc2ncc(C(=O)Nc3c(C)cccc3Cl)s2)cc(N2CCN(CCO)CC2)n1 [dasatinib]	2.47	3.28	2.31	2.98	1.84	2.01	2.62	2.24	0.662	0.858	0.19	0.251	0.249	0.157	0.444	0.441	> 10000 nM	> 10000 nM	1140 nM	5460 nM	230 nM	652 nM	7250 nM	2430 nM
Cc1cc2c(F)c(Oc3ncnn4cc(OC[C@@H](C)O)c(C)c34)ccc2[nH]1 + Cc1nc(Nc2ncc(C(=O)Nc3c(C)cccc3Cl)s2)cc(N2CCN(CCO)CC2)n1 [dasatinib]	2.39	3.38	2.68	3.43	1.8	2.59	2.65	2.3	0.621	0.789	0.693	0.528	0.343	0.682	0.656	0.179	> 10000 nM	> 10000 nM	> 10000 nM	> 10000 nM	1040 nM	> 10000 nM	> 10000 nM	6470 nM
Cc1cc2c(F)c(Oc3ncnn4cc(OC[C@@H](C)OC(=O)[C@H](C)N)c(C)c34)ccc2[nH]1 + Cc1nc(Nc2ncc(C(=O)Nc3c(C)cccc3Cl)s2)cc(N2CCN(CCO)CC2)n1 [dasatinib]	2.47	3.16	2.69	3.27	1.89	2.41	2.48	2.59	0.605	0.733	0.674	0.457	0.316	0.617	0.504	0.431	> 10000 nM	> 10000 nM	> 10000 nM	9860 nM	1050 nM	> 10000 nM	> 10000 nM	7600 nM
C[C@@H]1COC(Nc2ccc3ncnc(Nc4ccc(OCc5nccs5)c(Cl)c4)c3c2)=N1 + Cc1nc(Nc2ncc(C(=O)Nc3c(C)cccc3Cl)s2)cc(N2CCN(CCO)CC2)n1 [dasatinib]	2.36	4.08	2.03	3.53	1.62	1.87	2.05	2.16	0.638	0.988	0.318	0.679	0.286	0.18	0.49	0.318	> 10000 nM	> 10000 nM	614 nM	> 10000 nM	96.4 nM	267 nM	> 10000 nM	3550 nM
O=C1NC(=O)/C(=C/c2ccc3c(c2)OC(F)(F)O3)S1 + Cc1nc(Nc2ncc(C(=O)Nc3c(C)cccc3Cl)s2)cc(N2CCN(CCO)CC2)n1 [dasatinib]	2.34	3.79	2.52	4.77	2.11	2.51	2.32	2.42	0.645	0.925	0.655	1.28	0.538	0.679	0.543	0.634	> 10000 nM	> 10000 nM	> 10000 nM	> 10000 nM	> 10000 nM	> 10000 nM	> 10000 nM	> 10000 nM
CN(C)Cc1cccc(N/C(=C2\C(=O)Nc3cc(C(=O)N(C)C)ccc32)c2ccccc2)c1 + Cc1nc(Nc2ncc(C(=O)Nc3c(C)cccc3Cl)s2)cc(N2CCN(CCO)CC2)n1 [dasatinib]	2.35	3.5	2.49	3.62	1.61	2.43	2.19	2.09	0.229	0.473	0.386	0.0229	0.0657	0.561	0.348	0.0645	2480 nM	9880 nM	5620 nM	7140 nM	631 nM	> 10000 nM	3740 nM	1120 nM
Cc1n[nH]c2ccc(-c3cncc(OC[C@@H](N)Cc4ccccc4)c3)cc12 + Cc1nc(Nc2ncc(C(=O)Nc3c(C)cccc3Cl)s2)cc(N2CCN(CCO)CC2)n1 [dasatinib]	1.9	2.92	2.16	1.97	1.42	1.98	1.77	1.57	0.0087	0.012	0.166	0.00975	0.00362	0.00989	0.0069	0.0702	1530 nM	1260 nM	1130 nM	984 nM	85.7 nM	1050 nM	656 nM	224 nM
Nc1nccc(Oc2ccc(NC(=O)c3c[nH]cc(-c4ccc(F)cc4)c3=O)cc2F)c1Cl + Cc1nc(Nc2ncc(C(=O)Nc3c(C)cccc3Cl)s2)cc(N2CCN(CCO)CC2)n1 [dasatinib]	2.34	3.3	2.52	4.48	2.2	2.29	2.28	2.03	0.559	0.617	0.56	0.717	0.395	0.349	0.44	0.323	> 10000 nM	> 10000 nM	> 10000 nM	> 10000 nM	5540 nM	5580 nM	7600 nM	4030 nM
NC1(Cc2ccc(Cl)cc2)CCN(c2ncnc3[nH]ccc23)CC1 + Cc1nc(Nc2ncc(C(=O)Nc3c(C)cccc3Cl)s2)cc(N2CCN(CCO)CC2)n1 [dasatinib]	2.36	3.16	2.38	3.84	2.04	2.5	1.97	2.19	0.356	0.401	0.207	0.0115	0.165	0.323	0.00351	0.202	4470 nM	8070 nM	2130 nM	3230 nM	1480 nM	5140 nM	353 nM	2550 nM
